Assays:
[1] = tested on: S. aureus Newman; assay: Bliss interaction score (quartile over a dose matrix) (fitness difference); higher = more antagonism (negative = synergy)
In short: (§1)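 Fitness was defined as normalised growth: OD595 at the start of stationary phase divided by the plate's robust no-drug mean and capped at 1. Single-drug fitness was inferred from combination measurements. The Bliss score is observed fitness minus the product of the single-drug values, summarised by quartiles across technical, biological and donor/recipient replicates.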

[2] = tested on: B. subtilis 168; assay: as above
In short: as §1

[3] = tested on: S. aureus DSM 20231; assay: as above
In short: as §1

[4] = tested on: S. pneumoniae D39V; assay: as above
In short: as §1

[5] = tested on: S. aureus Newman; assay: fitness (endpoint OD595 vs no drug) (fraction); higher = more growth
In short: (§2)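 Growth medium was TSB, LB Lennox or CY, and plates were kept at 37 °C. Inoculation was at OD595 0.01 in 384-well plates, at 30 µl per well or 55 µl for S. pneumoniae. OD595 was monitored every 30 min for 14 h and background-subtracted using the first reading. Fitness is the optical density on entering stationary phase divided by the robust mean of no-drug controls, with values capped at 1.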

[6] = tested on: S. aureus DSM 20231; assay: as above
In short: as §2
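Throughout, for Bliss interaction score (quartile over a dose matrix): first quartile when negative (synergy) and third quartile when positive (antagonism).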
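Throughout, for fitness (endpoint OD595 vs no drug): OD595 on entry to stationary phase over no-drug wells; at most 1.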

CC[C@H]1OC(=O)[C@H](C)[C@@H](O[C@H]2C[C@@](C)(OC)[C@@H](O)[C@H](C)O2)[C@H](C)[C@@H](O[C@@H]2O[C@H](C)C[C@H](N(C)C)[C@H]2O)[C@](C)(O)C[C@@H](C)CN(C)[C@H](C)[C@@H](O)[C@]1(C)O [Azithromycin] + CCCCCCCCCC(=O)N[C@@H]1[C@H]([C@@H]([C@H](O[C@H]1OC2=C3C=C4C=C2OC5=C(C=C(C=C5)[C@H]([C@H]6C(=O)N[C@@H](C7=C(C(=CC(=C7)O)OC8[C@H]([C@H]([C@@H]([C@H](O8)CO)O)O)O)C9=C(C=CC(=C9)[C@H](C(=O)N6)NC(=O)[C@@H]4NC(=O)[C@@H]1C2=CC(=CC(=C2)OC2=C(C=CC(=C2)[C@H](C(=O)N[C@H](CC2=CC(=C(O3)C=C2)Cl)C(=O)N1)N)O)O)O)C(=O)O)O[C@H]1[C@@H]([C@H]([C@@H]([C@H](O1)CO)O)O)NC(=O)C)Cl)CO)O)O [Teicoplanin]
main component drawn
Details	Bliss interaction score
[1]	0.169
[2]	-0.0653
[3]	0.104
[4]	0.0706

fitness, main component drawn
Details	partner 0.1562 µg/mL	partner 0.3125 µg/mL	partner 0.625 µg/mL
[5], first compound 0.125 µg/mL	0.899	0.928	≥ 1
[5], first compound 0.25 µg/mL	0.978	0.974	0.775
[6], first compound 0.125 µg/mL	0.915	0.924	0.991
[6], first compound 0.25 µg/mL	0.935	0.987	≥ 1

fitness, [5], one replicate, main component drawn
Details	first compound 0.125 µg/mL	first compound 0.25 µg/mL	first compound 0.5 µg/mL
partner 0.62 µg/mL	0.799	0.998	0.863
partner 1.24 µg/mL	0.786	0.812	0.896
partner 2.48 µg/mL	0.57	0.55	0.579

CC[C@H]1OC(=O)[C@H](C)[C@@H](O[C@H]2C[C@@](C)(OC)[C@@H](O)[C@H](C)O2)[C@H](C)[C@@H](O[C@@H]2O[C@H](C)C[C@H](N(C)C)[C@H]2O)[C@](C)(O)C[C@@H](C)CN(C)[C@H](C)[C@@H](O)[C@]1(C)O [Azithromycin] + CN[C@H](CC(C)C)C(=O)N[C@H]1C(=O)N[C@@H](CC(N)=O)C(=O)N[C@H]2C(=O)N[C@H]3C(=O)N[C@H](C(=O)N[C@H](C(=O)O)c4cc(O)cc(O)c4-c4cc3ccc4O)[C@H](O)c3ccc(c(Cl)c3)Oc3cc2cc(c3O[C@@H]2O[C@H](CO)[C@@H](O)[C@H](O)[C@H]2O[C@H]2C[C@](C)(N)[C@H](O)[C@H](C)O2)Oc2ccc(cc2Cl)[C@H]1O [Vancomycin]
Details	Bliss interaction score
[1]	-0.104
[2]	-0.0288
[3]	0.0943
[4]	-0.0427

fitness
Details	partner 0.1875 µg/mL	partner 0.375 µg/mL	partner 0.75 µg/mL
[5], first compound 0.125 µg/mL	0.909	0.906	0.882
[5], first compound 0.25 µg/mL	0.855	0.893	0.862
[6], first compound 0.125 µg/mL	0.846	0.875	0.898
[6], first compound 0.25 µg/mL	0.819	0.874	0.829

CC[C@H]1OC(=O)[C@H](C)[C@@H](O[C@H]2C[C@@](C)(OC)[C@@H](O)[C@H](C)O2)[C@H](C)[C@@H](O[C@@H]2O[C@H](C)C[C@H](N(C)C)[C@H]2O)[C@](C)(O)C[C@@H](C)CN(C)[C@H](C)[C@@H](O)[C@]1(C)O [Azithromycin] + CO/N=C(\C(=O)N[C@@H]1C(=O)N2C(C(=O)[O-])=C(C[N+]3(C)CCCC3)CS[C@H]12)c1csc(N)n1 [Cefepime]
Details	Bliss interaction score
[1]	0.0874
[2]	0.0866
[3]	0.103
[4]	0.112

fitness
Details	first compound 0.125 µg/mL	first compound 0.25 µg/mL	first compound 0.5 µg/mL
[5], partner 0.125 µg/mL	0.872	0.927	0.752
[5], partner 0.25 µg/mL	0.799	0.872	0.669
[5], partner 0.5 µg/mL	0.794	0.809	0.551
[6], partner 0.125 µg/mL	0.842	0.858	–
[6], partner 0.25 µg/mL	0.818	0.838	–
[6], partner 0.5 µg/mL	0.833	0.843	0.565

CC[C@H]1OC(=O)[C@H](C)[C@@H](O[C@H]2C[C@@](C)(OC)[C@@H](O)[C@H](C)O2)[C@H](C)[C@@H](O[C@@H]2O[C@H](C)C[C@H](N(C)C)[C@H]2O)[C@](C)(O)C[C@@H](C)CN(C)[C@H](C)[C@@H](O)[C@]1(C)O [Azithromycin] + Cn1nnc(-c2ccc(-c3ccc(N4C[C@H](CO)OC4=O)cc3F)cn2)n1 [Tedizolid]
Details	Bliss interaction score
[1]	-0.14
[2]	-0.0935
[3]	-0.0615
[4]	0.0648

fitness
Details	first compound 0.125 µg/mL	first compound 0.25 µg/mL	first compound 0.5 µg/mL
[5], partner 0.0625 µg/mL	0.867	0.818	–
[5], partner 0.125 µg/mL	0.744	0.644	–
[6], partner 0.0625 µg/mL	0.887	0.765	–
[6], partner 0.125 µg/mL	0.7	0.667	0.294
[6], partner 0.25 µg/mL	0.165	0.231	0.0821

CC[C@H]1OC(=O)[C@H](C)[C@@H](O[C@H]2C[C@@](C)(OC)[C@@H](O)[C@H](C)O2)[C@H](C)[C@@H](O[C@@H]2O[C@H](C)C[C@H](N(C)C)[C@H]2O)[C@](C)(O)C[C@@H](C)CN(C)[C@H](C)[C@@H](O)[C@]1(C)O [Azithromycin] + O=C(N[C@H](CO)[C@H](O)c1ccc([N+](=O)[O-])cc1)C(Cl)Cl [Chloramphenicol]
Details	Bliss interaction score
[1]	-0.101
[2]	-0.116
[3]	-0.153
[4]	0.0336

fitness
Details	first compound 0.125 µg/mL	first compound 0.25 µg/mL	first compound 0.5 µg/mL
[5], partner 0.75 µg/mL	0.76	0.692	0.461
[5], partner 1.5 µg/mL	0.515	0.527	0.253
[5], partner 3 µg/mL	–	0.2	0.109
[6], partner 0.75 µg/mL	0.703	0.657	0.29
[6], partner 1.5 µg/mL	0.544	0.366	0.139
[6], partner 3 µg/mL	0.155	0.113	0.0604

— the supplement of paper PMC10627819
